Measured values from paper PMC8286840, “Identifying SARS-CoV-2 antiviral compounds by screening for small molecule inhibitors of Nsp3 papain-like protease” (Biochemical Journal, 2021).
Where a name gives a salt, the structure may show the parent alone. Read-outs that look alike come from different tables or passages of the source.

Experiments:
[1] = biological target: T1, SARS-CoV-2 PLpro (nsp3 1564–1878) (Severe acute respiratory syndrome coronavirus 2, UniProt P0DTD1); test: biochemical; design: FRET-quenched peptide (Pro3) cleavage by PLpro, 10 min pre-incubation, slope over 20 min, normalised to no-compound control; conditions: high concentration screen, read-out: % of control remaining
[2] = biological target: T1, SARS-CoV-2 PLpro (nsp3 1564–1878); test: biochemical; design: FRET-quenched peptide (Pro3) cleavage by PLpro, 10 min pre-incubation, slope over 20 min, normalised to no-compound control; conditions: low concentration screen, read-out: % of control remaining

## COc1cc2nc(N3CCN(C(=O)C4COc5ccccc5O4)CC3)nc(N)c2cc1OC (stereo not shown) [Doxazosin mesylate]
[1]; Well no.=730
  remaining activity at 3.75 µM: 93.7%
[2]; Well no.=730
  remaining activity at 1.25 µM: 98.2%

## COc1cc2nc(N3CCN(C(=O)C4COc5ccccc5O4)CC3)nc(N)c2cc1OC (stereo not shown) [Doxazosin]
[1]; Well no.=1988
  remaining activity at 3.75 µM: 104%
[2]; Well no.=1988
  remaining activity at 1.25 µM: 103%

## CN(C)CCC=C1c2ccccc2COc2ccccc21 [Doxepin hydrochloride]
[1]; Well no.=451
  remaining activity at 3.75 µM: 102%
[2]; Well no.=451
  remaining activity at 1.25 µM: 105%

## C[C@H]1O[C@@H](n2cc(F)c(=O)[nH]c2=O)[C@H](O)[C@@H]1O [Doxifluridine]
[1]; Well no.=1990
  remaining activity at 3.75 µM: 103%
[1]; Well no.=8843
  remaining activity at 3.75 µM: 89.3%
[2]; Well no.=1990
  remaining activity at 1.25 µM: 101%
[2]; Well no.=8843
  remaining activity at 1.25 µM: 96.7%

## Cn1c(=O)c2c(ncn2CC2OCCO2)n(C)c1=O [Doxofylline]
[1]; Well no.=2020
  remaining activity at 3.75 µM: 99.1%
[1]; Well no.=8323
  remaining activity at 3.75 µM: 94.2%
[2]; Well no.=2020
  remaining activity at 1.25 µM: 100%
[2]; Well no.=8323
  remaining activity at 1.25 µM: 99.7%

## COc1cccc2c1C(=O)c1c(O)c3c(c(O)c1C2=O)C[C@@](O)(C(=O)CO)C[C@@H]3O[C@H]1C[C@H](N)[C@H](O)[C@H](C)O1 [Doxorubicin.HCl]
[1]; Well no.=1710
  remaining activity at 3.75 µM: 100%
[1]; Well no.=3235
  remaining activity at 3.75 µM: 105%
[2]; Well no.=1710
  remaining activity at 1.25 µM: 98.5%
[2]; Well no.=3235
  remaining activity at 1.25 µM: 105%

## C[C@H]1c2cccc(O)c2C(=O)C2=C(O)[C@]3(O)C(=O)C(C(N)=O)=C(O)[C@@H](N(C)C)[C@@H]3[C@@H](O)[C@@H]21 [Doxycycline hydrochloride]
[1]; Well no.=396
  remaining activity at 3.75 µM: 108%
[2]; Well no.=396
  remaining activity at 1.25 µM: 105%

## C[C@H]1c2cccc(O)c2C(=O)C2=C(O)[C@]3(O)C(=O)C(C(N)=O)=C(O)[C@@H](N(C)C)[C@@H]3[C@@H](O)[C@@H]21 [Doxycycline]
[1]; Well no.=2022
  remaining activity at 3.75 µM: 107%
[2]; Well no.=2022
  remaining activity at 1.25 µM: 106%

## CN(C)CCOC(C)(c1ccccc1)c1ccccn1 (stereo not shown) [Doxylamine (succinate)]
[1]; Well no.=6421
  remaining activity at 3.75 µM: 102%
[2]; Well no.=6421
  remaining activity at 1.25 µM: 99.2%

## CN(C)CCOC(C)(c1ccccc1)c1ccccn1 (stereo not shown) [Doxylamine succinate]
[1]; Well no.=497
  remaining activity at 3.75 µM: 104%
[2]; Well no.=497
  remaining activity at 1.25 µM: 102%

## CN(C)C(=S)NN=C(c1ccccn1)c1ccccn1 [Dp44mT]
[1]; Well no.=5584
  remaining activity at 3.75 µM: 101%
[2]; Well no.=5584
  remaining activity at 1.25 µM: 99.1%

## CCCCc1oc2ccc(NS(C)(=O)=O)cc2c1C(=O)c1ccc(OCCCN(CCCC)CCCC)cc1 [Dronedarone]
[1]; Well no.=8285
  remaining activity at 3.75 µM: 94.4%
[2]; Well no.=8285
  remaining activity at 1.25 µM: 100%

## O=C(CCCN1CC=C(n2c(=O)[nH]c3ccccc32)CC1)c1ccc(F)cc1 [Droperidol]
[1]; Well no.=493
  remaining activity at 3.75 µM: 106%
[1]; Well no.=7382
  remaining activity at 3.75 µM: 101%
[2]; Well no.=493
  remaining activity at 1.25 µM: 105%
[2]; Well no.=7382
  remaining activity at 1.25 µM: 97.2%

## C[C@]12CCC(=O)C=C1[C@@H]1C[C@@H]1[C@H]1[C@@H]3[C@@H]4C[C@@H]4[C@@]4(CCC(=O)O4)[C@@]3(C)CC[C@@H]12 [Drospirenone]
[1]; Well no.=5235
  remaining activity at 3.75 µM: 102%
[2]; Well no.=5235
  remaining activity at 1.25 µM: 99.4%

## Cc1cc(Cl)ccc1OCCCC(=O)NO [Droxinostat]
[1]; Well no.=5239
  remaining activity at 3.75 µM: 96.2%
[2]; Well no.=5239
  remaining activity at 1.25 µM: 101%

## CS(=O)(=O)c1ccc(-c2cc(Br)sc2-c2ccc(F)cc2)cc1 [DuP 697]
[1]; Well no.=499
  remaining activity at 3.75 µM: 107%
[2]; Well no.=499
  remaining activity at 1.25 µM: 105%

## COc1c2c(nc3ccccc13)OC(C(C)(O)CO)C2 (stereo not shown) [Dubinidine]
[1]; Well no.=486
  remaining activity at 3.75 µM: 105%
[1]; Well no.=3115
  remaining activity at 3.75 µM: 104%
[2]; Well no.=486
  remaining activity at 1.25 µM: 106%
[2]; Well no.=3115
  remaining activity at 1.25 µM: 102%

## OC[C@@H](O)[C@H](O)[C@H](O)[C@@H](O)CO [Dulcite]
[1]; Well no.=6883
  remaining activity at 3.75 µM: 94.4%
[2]; Well no.=6883
  remaining activity at 1.25 µM: 99.2%

## C[C@]12C=CC(=O)N[C@@H]1CC[C@@H]1[C@@H]2CC[C@]2(C)[C@@H](C(=O)Nc3cc(C(F)(F)F)ccc3C(F)(F)F)CC[C@@H]12 [Dutasteride]
[1]; Well no.=5107
  remaining activity at 3.75 µM: 107%
[2]; Well no.=5107
  remaining activity at 1.25 µM: 106%

## CCCCOc1ccc(C(=O)CCN2CCCCC2)cc1 [Dyclonine (hydrochloride)]
[1]; Well no.=8318
  remaining activity at 3.75 µM: 94.4%
[2]; Well no.=8318
  remaining activity at 1.25 µM: 95.9%

## CCCCOc1ccc(C(=O)CCN2CCCCC2)cc1 [Dyclonine HCl]
[1]; Well no.=5050
  remaining activity at 3.75 µM: 101%
[2]; Well no.=5050
  remaining activity at 1.25 µM: 103%

## Cn1c(=O)c2c(ncn2CC(O)CO)n(C)c1=O (stereo not shown) [Dyphylline]
[1]; Well no.=8092
  remaining activity at 3.75 µM: 95.3%
[2]; Well no.=8092
  remaining activity at 1.25 µM: 93.8%

## COc1cc2c3cc1Oc1c(OC)c(OC)cc4c1[C@@H](Cc1ccc(OC(=O)c5ccc([N+](=O)[O-])cc5)c(c1)Oc1ccc(cc1)C[C@@H]3N(C)CC2)N(C)CC4 [E6 Berbamine]
[1]; Well no.=3237
  remaining activity at 3.75 µM: 95%
[2]; Well no.=3237
  remaining activity at 1.25 µM: 97.5%

## C[C@H](NC(=O)c1c(C(F)F)nn(C)c1Oc1cccc(C(F)(F)F)c1)c1ccc(C(=O)O)cc1 [E7046]
[1]; Well no.=8441
  remaining activity at 3.75 µM: 94.6%
[2]; Well no.=8441
  remaining activity at 1.25 µM: 94.7%

## COc1cc2nccc(Oc3ccc(NC(=O)NC4CC4)c(Cl)c3)c2cc1C(N)=O [E7080]
[1]; Well no.=2981
  remaining activity at 3.75 µM: 98.1%
[2]; Well no.=2981
  remaining activity at 1.25 µM: 98%

## NC(N)=NCCC[C@H](NC(=O)c1sccc1NS(=O)(=O)c1cccc2nsnc12)C(=O)O [EG00229]
[1]; Well no.=8174
  remaining activity at 3.75 µM: 96.8%
[2]; Well no.=8174
  remaining activity at 1.25 µM: 101%

## O=C(Nc1cccc(Nc2cc(Nc3cccc(C(F)(F)F)c3)ncn2)c1)C1CC1 [EGFR Inhibitor]
[1]; Well no.=2403
  remaining activity at 3.75 µM: 103%
[2]; Well no.=2403
  remaining activity at 1.25 µM: 106%

## COc1cc2ncnc(Nc3ccc(OCc4ccccc4)cc3)c2cc1OC [EGFR/ErbB-2 Inhibitor]
[1]; Well no.=2373
  remaining activity at 3.75 µM: 97.2%
[2]; Well no.=2373
  remaining activity at 1.25 µM: 95.9%

## CC#CC(=O)Nc1cc2c(Nc3ccc(F)c(Cl)c3)ncnc2cn1 [EGFR/ErbB-2/ErbB-4 Inhibitor]
[1]; Well no.=2405
  remaining activity at 3.75 µM: 105%
[2]; Well no.=2405
  remaining activity at 1.25 µM: 102%

## O=c1cc(CN2CCOCC2)occ1OCCCCCSc1ccnc2cc(C(F)(F)F)ccc12 [EHT 1864]
[1]; Well no.=8435
  remaining activity at 3.75 µM: 90.8%
[2]; Well no.=8435
  remaining activity at 1.25 µM: 93.5%

## CCn1c2ccccc2c2cc(Nc3ccnc(NCCCN4CCOCC4)n3)ccc21 [EHop-016]
[1]; Well no.=6234
  remaining activity at 3.75 µM: 97.9%
[2]; Well no.=6234
  remaining activity at 1.25 µM: 98.3%

## Cc1[nH]c2ccc(Cl)cc2c1C1=CCNCC1 [EMD386088]
[1]; Well no.=5430
  remaining activity at 3.75 µM: 97.4%
[2]; Well no.=5430
  remaining activity at 1.25 µM: 95.7%

## Cc1cc(Nc2cc(N3CCN(C)CC3)nc(/C=C/c3ccccc3)n2)n[nH]1 [ENMD-2076 L-(+)-Tartaric acid]
[1]; Well no.=5012
  remaining activity at 3.75 µM: 89.1%
[2]; Well no.=5012
  remaining activity at 1.25 µM: 101%
